{
  "source": "patent US10799494B2",
  "about": "“Combination of respiratory electron transport chain inhibitors with a cytochrome bd inhibitor” (priority 2015, dated 2020)",
  "key": {"[1]": {"molecular_target": "M. tuberculosis cytochrome bd-I (Mycobacterium tuberculosis, UniProt L7N662)", "sequence (L7N662 1-485)": "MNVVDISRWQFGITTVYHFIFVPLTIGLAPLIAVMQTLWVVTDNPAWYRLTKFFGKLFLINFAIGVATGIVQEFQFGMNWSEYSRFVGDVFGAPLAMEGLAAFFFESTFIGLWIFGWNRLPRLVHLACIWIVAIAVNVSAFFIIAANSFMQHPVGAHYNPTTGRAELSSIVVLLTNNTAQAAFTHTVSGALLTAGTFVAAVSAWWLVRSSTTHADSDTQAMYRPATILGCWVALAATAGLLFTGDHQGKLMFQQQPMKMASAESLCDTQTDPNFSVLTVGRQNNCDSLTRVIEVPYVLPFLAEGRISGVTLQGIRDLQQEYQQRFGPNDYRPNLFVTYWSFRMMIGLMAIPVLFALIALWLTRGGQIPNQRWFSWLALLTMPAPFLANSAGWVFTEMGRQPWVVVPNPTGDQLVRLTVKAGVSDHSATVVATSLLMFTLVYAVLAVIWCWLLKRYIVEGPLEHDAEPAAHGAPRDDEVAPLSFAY", "type": "biochemical"}, "M. tuberculosis H37Rv": {"system": "M. tuberculosis H37Rv", "experiment": "M. tuberculosis H37Rv growth inhibition screen at fixed 5 μM", "type": "cell-based, Mycobacterium tuberculosis", "conditions": "Mycobacterium tuberculosis, H37RV; aerobic; 5 μM compound; read-out: Growth of M. tuberculosis H37Rv (aerobic) at 5 μM of [compounds]"}, "bovine cytochrome bc1": {"molecular_target": "bovine cytochrome bc1 (Bos taurus (Bovine), UniProt P00157)", "sequence (P00157 whole entry, looked up)": "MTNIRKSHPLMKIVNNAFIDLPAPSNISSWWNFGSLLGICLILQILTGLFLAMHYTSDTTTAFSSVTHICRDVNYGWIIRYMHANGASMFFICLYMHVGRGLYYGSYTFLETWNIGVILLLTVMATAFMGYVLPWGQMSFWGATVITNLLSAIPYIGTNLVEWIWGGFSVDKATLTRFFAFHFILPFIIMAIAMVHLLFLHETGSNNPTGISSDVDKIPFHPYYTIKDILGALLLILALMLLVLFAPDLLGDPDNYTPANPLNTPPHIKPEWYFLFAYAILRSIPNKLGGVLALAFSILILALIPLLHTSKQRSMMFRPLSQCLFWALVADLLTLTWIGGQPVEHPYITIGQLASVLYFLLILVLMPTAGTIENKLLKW", "experiment": "Bovine cytochrome bc1 inhibition (cytochrome c reduction, Keilin-Hartree particles)", "type": "biochemical"}, "HepG2 cell line": {"system": "HepG2 cell line", "experiment": "Human cell counter screen (HepG2) cellular toxicity"}, "[2]": {"molecular_target": "recombinant M. tuberculosis bd-I (Mycobacterium tuberculosis, UniProt L7N662)", "sequence (L7N662 1-485)": "as the sequence (L7N662 1-485) above", "experiment": "Steady-state kinetics of quinol:Mtb bd-I activity with artificial quinol substrates", "conditions": "for specific catalytic activity: FIG. 1, measured at 283 nm"}, "[3]": {"system": "Mycobacterium tuberculosis (Mtb) H37Rv", "experiment": "MGIT growth inhibition assay, time to positivity", "type": "cell-based"}, "Mtb H37Rv": {"system": "Mtb H37Rv", "experiment": "In vitro (replicating) Mtb growth inhibition, microplate Alamar blue assay", "type": "cell-based, Mycobacterium tuberculosis"}, "[4]": {"conditions": "9/79 vs placebo 2/81, […]; cited from earlier work"}, "[5]": {"system": "COc1c(O)c(C)c(C/C=C(\\C)CCC=C(C)C)c(O)c1OC", "experiment": "cells, lysate or membranes named", "conditions": "pH 7.5"}, "[6]": {"system": "COc1c(O)c(C)c(CC=C(C)C)c(O)c1OC", "experiment": "cells, lysate or membranes named", "conditions": "pH 7.5"}, "[7]": {"conditions": "Table 8, WDH-2G-6 3 μM, MTC420 5.5 μM, lansoprazole sulphide 26.5 μM, TMC207 250 nM, media control 10"}, "[8]": {"conditions": "Table 6, compounds at 5x IC90, drug free control 11, followed to 74 days"}},
  "note": "“And” between values parts separate entries of the source, which are not always exact repeats. Equal entries are not always repeated.",
  "data": [
    {"compound": "Cc1c(-c2ccc(Cc3ccccc3)cc2)[nH]c2ccccc2c1=O", "note": "[CK-2-88, 2-(4-Benzylphenyl)-3-methylquinolin-4(1H)-one]", "values": [
      {"measurement": "inhibition @ 1 uM (% of cntls)", "setting": "[1]", "result": "87.5 % of cntls"},
      {"measurement": "activity at 5 µM", "setting": "M. tuberculosis H37Rv", "result": 90.5, "unit": "%"},
      {"measurement": "IC50", "setting": "bovine cytochrome bc1", "result": 340, "unit": "nM"},
      {"measurement": "HepG2", "setting": "HepG2 cell line", "result": ">100", "unit": "µM"}
    ]},
    {"compound": "COc1c(O)c(C)c(CC=C(C)C)c(O)c1OC", "note": "[Compound Q1H2, ubiquinol-1]", "values": [
      {"measurement": "specific catalytic activity", "setting": "[2]", "result": "5.26 ± 0.52", "unit": "µmol/min/mg"}
    ]},
    {"compound": "COc1c(O)c(C)c(C/C=C(\\C)CCC=C(C)C)c(O)c1OC", "note": "[Compound Q2H2, ubiquinol-2]", "values": [
      {"measurement": "specific catalytic activity ± SEM", "setting": "[2]", "result": "8.7 ± 2.5", "unit": "µmol/min/mg"},
      {"measurement": "specific catalytic activity", "setting": "[2]", "result": "8.65 ± 2.5", "unit": "µmol/min/mg"}
    ]},
    {"compound": "Cc1c(-c2ccc(Cc3ccc(F)cc3)cc2)[nH]c2ccccc2c1=O", "note": "[LT-9, 2-(4-(4-Fluorobenzyl)phenyl)-3-methylquinolin-4(1H)-one]", "values": [
      {"measurement": "activity at 5 µM", "setting": "M. tuberculosis H37Rv", "result": 34.7, "unit": "%"},
      {"measurement": "HepG2", "setting": "HepG2 cell line", "result": ">50", "unit": "µM"}
    ]},
    {"compound": "Cc1c(OCC(F)(F)F)ccnc1CSc1nc2ccccc2[nH]1", "note": "[Lansoprazole sulphide, lansoprazole sulfide]", "values": [
      {"measurement": "Time to Positivity", "setting": "[3]; [7]", "result": 13, "unit": "days"},
      {"measurement": "Time to positivity (TtP)", "setting": "[3]; lansoprazole sulfide 26.5 μM, CK-2-63 35 μM, drug-free control 10 days", "result": 13, "unit": "days"}
    ]},
    {"compound": "Cc1c(-c2ccc(N3CCC(F)(F)C3)cc2)[nH]c2cc(F)cc(F)c2c1=O", "note": "[MTC420]", "values": [
      {"measurement": "IC50", "setting": "Mtb H37Rv", "result": 520, "unit": "nM"},
      {"measurement": "Time to positivity / outgrowth of Mtb in MGITs", "setting": "[3]; FIG. 3, repeated 3 times", "result": "11 to 13", "unit": "days"},
      {"measurement": "Time to Positivity", "setting": "[3]; [8]", "result": 18, "unit": "days"},
      {"measurement": "Time to Positivity", "setting": "[3]; [7]", "result": 13, "unit": "days"}
    ]},
    {"compound": "O=c1cc(-c2ccc(Cc3ccc(OC(F)(F)F)cc3)cc2)[nH]c2ccccc12", "note": "[RKA-70, 2-(4-(4-(Trifluoromethoxy)benzyl)phenyl)quinolin-4(1H)-one]", "values": [
      {"measurement": "activity at 5 µM", "setting": "M. tuberculosis H37Rv", "result": 100, "unit": "%"},
      {"measurement": "IC50", "setting": "bovine cytochrome bc1", "result": 310, "unit": "nM"},
      {"measurement": "HepG2", "setting": "HepG2 cell line", "result": ">50", "unit": "µM"}
    ]},
    {"compound": "CO[C@H]1/C=C/O[C@@]2(C)Oc3c(C)c(O)c4c(O)c(c(/C=N/N5CCN(C)CC5)c(O)c4c3C2=O)NC(=O)/C(C)=C\\C=C\\[C@H](C)[C@H](O)[C@@H](C)[C@@H](O)[C@@H](C)[C@H](OC(C)=O)[C@@H]1C", "note": "[Rifampicin]", "values": [
      {"measurement": "Time to Positivity", "setting": "[3]; [8]", "result": "No effect at 74 days"}
    ]},
    {"compound": "Cc1c(-c2ccc(-c3ccc(OC(F)(F)F)cc3)nc2)[nH]c2ccccc2c1=O", "note": "[SL-2-25, 3-Methyl-2-(6-(4-(trifluoromethoxy)phenyl)pyridin-3-yl)quinolin-4(1H)-one]", "values": [
      {"measurement": "activity at 5 µM", "setting": "M. tuberculosis H37Rv", "result": 88.9, "unit": "%"},
      {"measurement": "IC50", "setting": "bovine cytochrome bc1", "result": 890, "unit": "nM"},
      {"measurement": "HepG2", "setting": "HepG2 cell line", "result": ">50", "unit": "µM"}
    ]},
    {"compound": "COc1nc2ccc(Br)cc2cc1[C@@H](c1ccccc1)[C@@](O)(CCN(C)C)c1cccc2ccccc12", "note": "[TMC 207, bedaquiline]", "values": [
      {"measurement": "Time to Positivity", "setting": "[3]; Table 7 / FIG. 9, compounds at 5x IC90, 7.5×10^5 Mtb cells per tube, drug free control 8, followed to 80 days", "result": 12, "unit": "days"},
      {"measurement": "Time to Positivity", "setting": "[3]; [7]", "result": 13, "unit": "days"},
      {"measurement": "death in treatment group", "setting": "[4]", "result": 11.4, "unit": "%"}
    ]},
    {"compound": "CC(C)c1c(-c2cnn(Cc3ccc(OC(F)(F)F)cc3)c2)[nH]c2ccccc2c1=O", "note": "[WDH-2G-6, 3-Isopropyl-2-(1-(4-(trifluoromethoxy)benzyl)-1H-pyrazol-4-yl)quinolin-4(1H)-one]", "values": [
      {"measurement": "inhibition @ 1 uM (% of cntls)", "setting": "[1]", "result": "81.6 % of cntls"},
      {"measurement": "Time to Positivity", "setting": "[3]; [7]", "result": 10, "unit": "days"}
    ]},
    {"compound": "CCCCCCCCCCc1c(C)c(O)c(OC)c(OC)c1O", "note": "[dQH2, decylubiquinol]", "values": [
      {"measurement": "specific catalytic activity ± SEM", "setting": "[2]", "result": "9.0 ± 0.2 µmol/min/mg and 5.1 ± 0.3 µmol/min/mg and 6.2 ± 0.5 µmol/min/mg"},
      {"measurement": "specific catalytic activity", "setting": "[2]", "result": "5.1 ± 0.29", "unit": "µmol/min/mg"}
    ]},
    {"compound": "recombinant M. tuberculosis bd-I (Mycobacterium tuberculosis H37Rv)", "values": [
      {"measurement": "Km", "setting": "[5]", "result": "65.21 ± 15.31 µM and 65.2 ± 15.3 µM"},
      {"measurement": "Km", "setting": "[6]", "result": "51.55 ± 8.9 µM and 51.6 ± 8.9 µM and 51.8 ± 6.1 µM"}
    ]}
  ]
}
